Data: patent US9783530B2, “Factor Xla inhibitors” (Merck Sharp & Dohme Corp., priority 2014, dated 2017)

What was measured:
[1] = molecular target: purified human Factor XIa (Homo sapiens (Human), UniProt P03951); assay: Factor XIa Assay; assay type: biochemical; conditions: purified human Factor XIa 40 pM, substrate Z-Gly-Pro-Arg-AFC, pH 7.4; read-out: FXIa IC50
Method: The effectiveness of a compound of the present invention as an inhibitor of Coagulation Factor XIa can be determined using a relevant purified serine protease, and an appropriate synthetic substrate. The rate of hydrolysis of the chromogenic or fluorogenic substrate by the relevant serine protease was measured both in the absence and presence of compounds of the present invention. Assays were conducted at room temperature or at 37° C. […] A decrease in the rate of fluorescence change in the presence of inhibitor is indicative of enzyme inhibition. Such methods are known to one skilled in the art. […]
Factor XIa determinations were made in 50 mM HEPES buffer at pH 7.4 containing 150 mM NaCl, 5 mM CaCl2, and 0.1% PEG 8000 (polyethylene glycol; JT Baker or Fisher Scientific). Determinations were made using purified human Factor XIa at a final concentration of 40 pM (Sekisui Diagnostics) and he synthetic substrate, Z-Gly-Pro-Arg-AFC, TFA salt (Sigma #C0980) at a concentration of 100 µM.
Activity assays were performed by diluting a stock solution of substrate at least tenfold to a final concentration ≦0.1 Km into a solution containing enzyme or enzyme equilibrated with inhibitor. Times required to achieve equilibration between enzyme and inhibitor were determined in control experiments. Initial velocities of product formation in the absence (Vo) or presence of inhibitor (Vi) were measured. Assuming competitive inhibition, and that unity is negligible compared Km/[S], [I]/e, and [I]/e (where [S], [I], and e respectively represent the total concentrations, of substrate, inhibitor and enzyme), the equilibrium constant (Ki) for dissociation of the inhibitor from the enzyme can be obtained from the dependence of Vo/Vi on [I] shown in the following equation.

[2] = molecular target: purified Human plasma kallikrein (Homo sapiens (Human), UniProt P03952); assay: Kallikrein Assay; assay type: biochemical; conditions: purified Human plasma kallikrein 0.5 nM, substrate Acetyl-K-P-R-AFC, pH 7.4; read-out: P. KLK IC50
Method: The effectiveness of a compound of the present invention as an inhibitor of Kallikrein can be determined using a relevant purified serine protease, and an appropriate synthetic substrate. The rate of hydrolysis of the chromogenic or fluorogenic substrate by the relevant serine protease was measured both in the absence and presence of compounds of the present invention. Assays were conducted at room temperature or at 37° C. […] A decrease in the rate of fluorescence change in the presence of inhibitor is indicative of enzyme inhibition. Such methods are known to one skilled in the art. The results of this assay are expressed as the inhibitory constant, Ki.
Kallikrein determinations were made in 50 mM HEPES buffer at pH 7.4 containing 150 mM NaCl, 5 mM CaCl2, and 0.1% PEG 8000 (polyethylene glycol; Fisher Scientific). Determinations were made using purified Human plasma kallikrein at a final concentration of 0.5 nM (Enzyme Research Laboratories) and the synthetic substrate, Acetyl-K-P-R-AFC (Sigma # C6608) at a concentration of […].
Activity assays were performed by diluting a stock solution of substrate at least tenfold to a final concentration ≦0.2 Km into a solution containing enzyme or enzyme equilibrated with inhibitor. Times required to achieve equilibration between enzyme and inhibitor were determined in control experiments. The reactions were performed under linear progress curve conditions and fluorescence increase measured at 405 Ex/510 Em nm. Values were converted to percent inhibition of the control reaction (after subtracting 100% Inhibition value). IC50 was determined by inflection point from a four parameter logistic curve fit. Ki was calculated using the Cheng Prusoff equation, Ki=IC50/(1+([S]/Km)).

Chain of purified human Factor XIa (P03951 388-625): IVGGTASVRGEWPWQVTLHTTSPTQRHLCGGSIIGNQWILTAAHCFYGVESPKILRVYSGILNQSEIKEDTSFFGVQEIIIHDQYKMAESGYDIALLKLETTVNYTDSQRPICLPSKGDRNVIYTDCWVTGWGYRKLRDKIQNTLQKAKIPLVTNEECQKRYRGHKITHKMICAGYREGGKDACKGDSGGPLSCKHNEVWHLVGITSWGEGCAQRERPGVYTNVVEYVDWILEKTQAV
Chain of purified human Factor XIa (P03951 19-387 partner): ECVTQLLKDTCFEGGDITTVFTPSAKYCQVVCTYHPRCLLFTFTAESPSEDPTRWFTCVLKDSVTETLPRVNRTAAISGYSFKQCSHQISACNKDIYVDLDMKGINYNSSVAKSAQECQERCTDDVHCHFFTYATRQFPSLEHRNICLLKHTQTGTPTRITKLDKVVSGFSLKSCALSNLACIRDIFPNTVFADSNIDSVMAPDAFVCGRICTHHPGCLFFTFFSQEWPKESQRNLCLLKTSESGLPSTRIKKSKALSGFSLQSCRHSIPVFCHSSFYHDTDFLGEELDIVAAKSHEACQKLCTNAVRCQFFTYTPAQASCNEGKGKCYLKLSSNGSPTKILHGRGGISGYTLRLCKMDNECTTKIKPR
Chain of purified Human plasma kallikrein (P03952 391-638): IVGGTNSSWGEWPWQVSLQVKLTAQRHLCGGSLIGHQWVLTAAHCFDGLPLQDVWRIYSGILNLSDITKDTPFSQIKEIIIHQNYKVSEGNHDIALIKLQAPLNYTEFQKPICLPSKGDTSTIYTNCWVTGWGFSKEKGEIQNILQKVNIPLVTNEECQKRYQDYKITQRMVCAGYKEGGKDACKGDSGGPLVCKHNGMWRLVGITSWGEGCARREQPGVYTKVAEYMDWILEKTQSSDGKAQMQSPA
Chain of purified Human plasma kallikrein (P03952 20-390 partner): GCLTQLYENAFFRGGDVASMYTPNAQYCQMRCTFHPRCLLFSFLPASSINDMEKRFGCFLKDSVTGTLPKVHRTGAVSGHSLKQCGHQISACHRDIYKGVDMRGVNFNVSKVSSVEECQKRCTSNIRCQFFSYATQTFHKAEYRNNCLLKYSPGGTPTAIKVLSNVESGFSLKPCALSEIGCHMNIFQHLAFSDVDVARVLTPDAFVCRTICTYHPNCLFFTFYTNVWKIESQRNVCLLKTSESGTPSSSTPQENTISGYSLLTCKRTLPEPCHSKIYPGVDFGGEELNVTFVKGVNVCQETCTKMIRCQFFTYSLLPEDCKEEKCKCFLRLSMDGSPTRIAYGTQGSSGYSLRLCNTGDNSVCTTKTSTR

O=C(O)c1ccc(NC(=O)[C@H](CC2CC2)c2ccc(-c3cc(Cl)ccc3-n3cnnn3)c[n+]2[O-])cc1 [Example 27, 4-{[(2R)-2-{5-[5-chloro-2-(1H-tetrazol-1-yl)phenyl]-1-oxidopyridin-2-yl}-3-cyclopropylpropanoyl]amino}benzoic acid]
IC50 [1]: 0.14 nM | IC50 [2]: 23.8 nM

O=C(O)c1ccc(NC(=O)[C@@H](Cc2ccc(F)cc2)c2ccc(-c3cc(Cl)ccc3-n3cnnn3)c[n+]2[O-])cc1 [Example 7, 4-{[(2S)-2-{5-[5-chloro-2-(1H-tetrazol-1-yl)phenyl]-1-oxidopyridin-2-yl}-3-(4-fluorophenyl)propanoyl]amino}benzoic acid]
IC50 [1]: 14.2 nM | IC50 [2]: 67.1 nM

O=C(O)c1ccc(NC(=O)C(CC2CC2)c2ccc(-c3cc(Cl)ccc3-n3cnnn3)c[n+]2[O-])cc1F (single isomer, unassigned) [Example 45, 4-[(2-{5-[5-chloro-2-(1H-tetrazol-1-yl)phenyl]-1-oxidopyridin-2-yl}-3-cyclopropylpropanoyl)amino]-2-fluorobenzoic acid]
IC50 [1]: 0.07 nM | IC50 [2]: 17.6 nM

N#Cc1ccc(Cl)c(F)c1-c1ccc(C(CC2CC2)C(=O)Nc2ccc(C(=O)O)cc2)[n+]([O-])c1 (single isomer, unassigned) [Example 30, 4-({2-[5-(3-chloro-6-cyano-2-fluorophenyl)-1-oxidopyridin-2-yl]-3-cyclopropylpropanoyl}amino)benzoic acid]
IC50 [1]: 4.24 nM | IC50 [2]: 80.4 nM

Cc1cc(NC(=O)C(CC2CC2)c2ccc(-c3cc(Cl)ccc3-n3cnnn3)c[n+]2[O-])ccc1C(=O)O (single isomer, unassigned) [Example 48, 4-[(2-{5-[5-chloro-2-(1H-tetrazol-1-yl)phenyl]-1-oxidopyridin-2-yl}-3-cyclopropylpropanoyl)amino]-2-methylbenzoic acid]
IC50 [1]: 0.46 nM | IC50 [2]: 83.1 nM

O=C(NC12CCC(C(=O)O)(CC1)CC2)C(Cc1ccccc1)c1ccc(-c2cc(Cl)ccc2-n2cnnn2)c[n+]1[O-] (single isomer, unassigned) [Example 17, 4-[(2-{5-[5-chloro-2-(1H-tetrazol-1-yl)phenyl]-1-oxidopyridin-2-yl}-3-phenylpropanoyl)amino] bicyclo[2.2.2]octane-1-carboxylic acid]
IC50 [1]: 0.76 nM | IC50 [2]: 144 nM

Cc1cc(C(Cc2ccccc2)C(=O)Nc2ccc(C(=O)O)cc2)[n+]([O-])cc1-c1c(F)ccc(Cl)c1F (stereo not drawn) [Example 25, 2-(1-((4-carboxyphenyl)amino)-1-oxo-3-phenylpropan-2-yl)-5-(3-chloro-2,6-difluorophenyl)-4-methylpyridine 1-oxide]
IC50 [1]: 8.32 nM | IC50 [2]: 42.3 nM

O=C(O)c1ccc(NC(=O)[C@@H](Cc2ccccc2)c2ccc(-c3cc(Cl)ccc3-n3cnnn3)c[n+]2[O-])cc1 [Example 1, 4-{[(2S)-2-{5-[5-chloro-2-(1H-tetrazol-1-yl)phenyl]-1-oxidopyridin-2-yl}-3-phenylpropanoyl]amino} benzoic acid]
IC50 [1]: 32.7 nM | IC50 [2]: 83.1 nM

O=C(O)c1ccc(NC(=O)C(CC2CC2)c2ccc(-c3cc(Cl)ccc3-n3cnnn3)c[n+]2[O-])c(Cl)c1 (single isomer, unassigned) [Example 32, 3-chloro-4-[(2-{5-[5-chloro-2-(1H-tetrazol-1-yl)phenyl]-1-oxidopyridin-2-yl}-3-cyclopropylpropanoyl)amino]benzoic acid]
IC50 [1]: 3.37 nM | IC50 [2]: 692 nM
